For one test, the system named is U-937. The experiment in a line: Antiproliferative activity against human U-937 cells assessed as inhibition of cell growth at 30 uM incubated for 48 hrs in presence of 10% FBS by CCK-8 assay relative to control. It counts as functional. Further details: scale not given: the % may be the effect or the level left. On the technique in general: Tetrazolium dyes change colour on reduction, which living cells bring about.

Test [1] concerns MCF7. Kind of test: Antiproliferative activity against human MCF7 cells assessed as inhibition of cell growth at 30 uM incubated for 48 hrs in presence of 10% FBS by CCK-8 assay relative to control. Further details: scale not given: the % may be the effect or the level left. It counts as functional.
For test [2], the system named is MCF7. The experiment in a line: Antiproliferative activity against human MCF7 cells assessed as inhibition of cell growth at 30 uM incubated for 48 hrs in presence of 10% FBS by CCK-8 assay. Format: functional, cell-based.

Activity calls are given as the source filed them. The rule behind the calls is not given here.

Activity data for 2 compounds are collected here from ChEMBL document CHEMBL5390217, “Structure Confirmation of Dechlorotrichotoxin A through Stereoselective Total Synthesis” (2023).

Consider `C=CC[C@@H](O)/C(C)=C/[C@@H](C)CCC(=C)Cc1ccccc1`, for which the Activity in the test with U-937 amounted to 44%; in the test on MCF7 [1], 21%.

For the compound `C=CC[C@@H](O)/C(C)=C/[C@@H](C)CCC(=CCl)Cc1ccccc1` (mixture of isomers), the outcome in the test with MCF7 [2] was inactive. Besides, in the test on U-937, the Activity is 20%.
